Source: article PMC4020581 (Biochemistry, 2014)

Molecular target: T1, FtsZ (Bacillus subtilis, UniProt P17865)
T1 sequence (P17865 1-382): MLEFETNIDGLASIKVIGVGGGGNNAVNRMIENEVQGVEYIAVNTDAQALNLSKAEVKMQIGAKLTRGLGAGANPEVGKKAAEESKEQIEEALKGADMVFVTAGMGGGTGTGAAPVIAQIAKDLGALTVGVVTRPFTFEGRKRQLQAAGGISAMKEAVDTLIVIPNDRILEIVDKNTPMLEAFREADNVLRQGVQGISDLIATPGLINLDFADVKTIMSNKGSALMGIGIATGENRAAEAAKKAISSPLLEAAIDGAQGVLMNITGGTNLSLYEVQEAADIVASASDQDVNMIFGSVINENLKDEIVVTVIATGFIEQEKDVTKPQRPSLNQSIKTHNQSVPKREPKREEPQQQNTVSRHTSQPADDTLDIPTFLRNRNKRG
Assay: malachite green/ammonium molybdate GTPase assay
Assay type: biochemical

## Nc1nc2c(ncn2[C@@H]2O[C@H](COP(=O)(O)OP(=O)(O)OP(=O)(O)O)[C@@H](O)[C@H]2O)c(=O)[nH]1 [GTP]
  malachite green/ammonium molybdate GTPase assay (1 mM GTP): 1.5 ± 0.6 min^–1
